Bridge positions count the residues as written; N and C are the ends. Ends that are not written are not given here.
Columns and labels:
mKCa1.1 = type: cell-based, mice
Text: We, therefore, aimed at testing the pharmacological activity of sCm39 on a battery of various potassium and sodium ion channels. Among the tested channels were six members of human voltage-gated K^+ (hKV) channels from Shaker family, hKV1.1-hKV1.6 (Figure 3A–F) and three members of Ca^2+-activated potassium channel; hKCa2.2 (SK2, Figure 3I), the small-conductance Ca^2+-activated channel; hKCa3.1 (IKCa1, SK4. Figure 3J), the intermediate-conductance Ca^2+-activated channel expressed in T lymphocytes; and mKCa1.1 (BK, Slo1, MaxiK, Figure 3H), the large-conductance voltage- and Ca^2+-activated channel of mice. In addition, we also screened the effect of Cm39 on hKV11.1 (hERG1, Figure 3G), a voltage-gated cardiac K^+ channel, and two human voltage-gated sodium (hNaV) channels, hNaV1.4 (Figure 3K) and hNaV1.5 (Figure 3L), expressed in skeletal and cardiac muscles, respectively. These ion channels were heterologously expressed in the CHO or HEK cell lines except for KV1.3. Human peripheral T lymphocytes. They were stimulated with Phytohemagglutinin A (PHA) to increase the KV1.3 channel expression, and Ca^2+-free intracellular solution was used to avoid KCa3.1 channel activation. Appropriate depolarization protocols were used to record ionic currents in voltage-clamped cells (see Figure 3 insets and Material and Methods for details). Freshly dissolved sCm39 in extracellular solution was applied at 1 µM concentration on the cell using a custom-built micro-perfusion system at ~200 µL/min flow rate. […]
Whole-cell currents were recorded in voltage-clamped cells following standard protocols by using a Multiclamp 700B amplifier connected to a computer with Axon Digidata1440 digitizer and for data acquisition, Clampex 10.7 software was used (Molecular Devices). […]

hKV1.3 = type: cell-based, human
Text: (§1) We, therefore, aimed at testing the pharmacological activity of sCm39 on a battery of various potassium and sodium ion channels. Among the tested channels were six members of human voltage-gated K^+ (hKV) channels from Shaker family, hKV1.1-hKV1.6 (Figure 3A–F) and three members of Ca^2+-activated potassium channel; hKCa2.2 (SK2, Figure 3I), the small-conductance Ca^2+-activated channel; hKCa3.1 (IKCa1, SK4. Figure 3J), the intermediate-conductance Ca^2+-activated channel expressed in T lymphocytes; and mKCa1.1 (BK, Slo1, MaxiK, Figure 3H), the large-conductance voltage- and Ca^2+-activated channel of mice. In addition, we also screened the effect of Cm39 on hKV11.1 (hERG1, Figure 3G), a voltage-gated cardiac K^+ channel, and two human voltage-gated sodium (hNaV) channels, hNaV1.4 (Figure 3K) and hNaV1.5 (Figure 3L), expressed in skeletal and cardiac muscles, respectively. These ion channels were heterologously expressed in the CHO or HEK cell lines except for KV1.3. Human peripheral T lymphocytes. They were stimulated with Phytohemagglutinin A (PHA) to increase the KV1.3 channel expression, and Ca^2+-free intracellular solution was used to avoid KCa3.1 channel activation. Appropriate depolarization protocols were used to record ionic currents in voltage-clamped cells (see Figure 3 insets and Material and Methods for details). Freshly dissolved sCm39 in extracellular solution was applied at 1 µM concentration on the cell using a custom-built micro-perfusion system at ~200 µL/min flow rate.
For the measurement of KV1.x, mKCa1.1 and NaV1.x currents the extracellular solution was composed of (in mM) 145 NaCl, 5 KCl, 2.5 CaCl2, 1 MgCl2, 10 HEPES and 5.5 glucose, pH 7.35. In the HK-150 and Na^+-free bath solution bath all Na^+ was substituted by K^+ or Choline-Cl, respectively, other ingredients remained unchanged. […]
Whole-cell currents were recorded in voltage-clamped cells following standard protocols by using a Multiclamp 700B amplifier connected to a computer with Axon Digidata1440 digitizer and for data acquisition, Clampex 10.7 software was used (Molecular Devices).

hKV1.6 = type: cell-based, human
Text: as §1
(§2) Chinese hamster ovary (CHO) cells (gift from Yosef Yarden, Weizmann Institute of Science, Rehovot, Israel) were maintained by culturing in Dulbecco’s modified Eagle medium (DMEM, Gibco) supplemented with 2 mM L-glutamine, 10% FBS, 100 µg/mL streptomycin and 100 U/mL penicillin-g (Sigma-Aldrich) at a density of 0. 5−1×10^6 cells per mL in a humidified incubator at 37 °C and 5% CO2. Cells were passaged 3 times in a week following a 2–5 min incubation in 0.05% trypsin-EDTA solution at 37 °C. Cultures were used up to passage number 20. PCR-based tests were routinely used to detect mycoplasma infection, only mycoplasma-free cultures were used for experiments.
(§3) Those plasmids which lack a fluorescent tag were co-transfected with a plasmid encoding GFP. Transfections were performed at a GFP:channel DNA molar ratio of 1:10 using the Lipofectamine 2000 kit (Invitrogen) according to the manufacturer’s protocol. […] Generally, currents were recorded 24 to 48 h post transfection.
(§4) For the measurement of KV1.x, mKCa1.1 and NaV1.x currents the extracellular solution was composed of (in mM) 145 NaCl, 5 KCl, 2.5 CaCl2, 1 MgCl2, 10 HEPES and 5.5 glucose, pH 7.35. In the HK-150 and Na^+-free bath solution bath all Na^+ was substituted by K^+ or Choline-Cl, respectively, other ingredients remained unchanged. In the various TEA^+-containing solutions, Na^+ was substituted by tetraethylammonium-Cl in equimolar concentration (Figure 3). The bath solution for KCa2.2 and KCa3.1 consisted of (in mM) 145 L-Aspartic Na^+ salt, 5 KCl, 2.5 CaCl2, 1 MgCl2, 5.5 glucose and 10 HEPES, pH 7.4 and for KV11.1 (in mM) 140 Choline-Cl, 5 KCl, 2 MgCl2, 2 CaCl2, 10 HEPES, 20 glucose and 0.1 CdCl2, pH 7.35. The osmolarity of bath solutions was ranging between 302 to 308 mOsm/L. A total of 0.1 mg/mL bovine serum albumin (BSA, Sigma-Aldrich, Budapest, Hungary) was added to all the bath solutions before the patch-clamp assay to avoid toxin adsorption to the plastic surfaces of the perfusion system. Internal or pipette solution for recording KV1.x and mKCa1.1 currents consisted of (in mM) 140 KF, 2 MgCl2, 1 CaCl2, 11 EGTA and 10 HEPES, pH 7.22.

hKV1.1 = type: cell-based, human
Text: as §1, §2, §3, §4

KV1.2 = details: cited from earlier work
Text: (§5) Most of the peptides in subfamily 4 are very similar (percentage identity ranging from 78 to 97%) and share common pharmacological targets, including KV1.3, KV1.2 and KCa channels. […] Not all subfamily 4 toxins have been tested on the KV1.3 channel, but for those that were te ...

KV1.3 = details: cited from earlier work
Text: Most of the peptides in subfamily 4 are very similar (percentage identity ranging from 78 to 97%) and share common pharmacological targets, including KV1.3, KV1.2 and KCa channels. […] Not all subfamily 4 toxins have been tested on the KV1.3 channel, but for those that were te ... || Generally, scorpion toxins interact at two different regions of KV channels to modify their function. Typical functional dyad (lysine and tyrosine) bearing toxins bind to the extracellular vestibule in such a way that lysine goes deep into selectivity filter, thereby plugging the pore of the channel. Other toxins interact with the voltage-sensing domain (VSD) causing the significant change in gating of the channel.

KCa3.1 channel = details: cited from earlier work
Text: as §5, with “... || To date, a number of scorpion-derived peptide toxins are known to block K^+ channels with great affinity. However, these native toxins target more than one channel which compromises their therapeutic use in the management of channelopathies.” for “...”

hKV1.2 = biological target: T1, hKV1.2 (Homo sapiens, UniProt P16389); test: Whole-cell patch-clamp, block of KV1.2 current; type: cell-based; details: fully reversible blocker as positive control
T1 construct: GFP (vector pCMV6-AC-GFP); host or cells: CHO cells, transient transfection
Text: as §1
For comprehensive characterization of Cm39 activity on KV1.2, we determined the concentration–response of current inhibition by Cm39, the kinetic parameters of its binding and assessed the effect on voltage dependence of steady-state activation. The whole-cell KV1.2 currents were recorded in CHO cells using depolarization pulses to +50mV from −120mV holding potential (Vh) every 15 s. Since the activation kinetics of KV1.2 are highly variable, the duration of pulses was set on a cell-by-cell basis between 15–300 ms to allocate sufficient time for reaching maximum currents at the test potentials. […] The remaining current fractions (RCF = I/I0, where I0 is the peak current in the absence of the toxin, and I is the peak current at equilibrium block in the presence of sCm39 at a given concentration) were calculated and plotted as a function of toxin concentration.
Single-exponential decay functions were fitted to the normalized peak currents in the presence of each sCm39 concentration (Figure 4C, data points in red shades) to determine the time constant for the onset of block (τon, wash-in or association time constant). The dissociation time constant for the relief from block (τoff, wash-out time constant) was obtained by fitting a single-exponential rising function to the normalized peak currents in the wash-out procedure (Figure 4C, data point in black empty circles). Assuming a simple bimolecular interaction between the toxin and the channel, time constants for the onset and recovery from the block can be stated as follows:(1) τon=1/kon×[toxin]+koff , τoff=1/koff where kon represents the second-order association rate constant, koff indicates the first-order dissociation rate constant and [toxin] is the sCm39 concentration. […] The second-order rate constant of association (kon) was determined by fitting the 1/τon data points using linear regression with koff as the y-intercept.

[1] = tested on: several KV1.x channel subtypes and Ca^2+-activated channels; details: high affinity; cited from earlier work
Text: To date, a number of scorpion-derived peptide toxins are known to block K^+ channels with great affinity. However, these native toxins target more than one channel which compromises their therapeutic use in the management of channelopathies.

KCa2.2 channel = details: cited from earlier work
Text: as §5, with “... || To date, a number of scorpion-derived peptide toxins are known to block K^+ channels with great affinity. However, these native toxins target more than one channel which compromises their therapeutic use in the management of channelopathies.” for “...”

T1 sequence (P16389 whole entry): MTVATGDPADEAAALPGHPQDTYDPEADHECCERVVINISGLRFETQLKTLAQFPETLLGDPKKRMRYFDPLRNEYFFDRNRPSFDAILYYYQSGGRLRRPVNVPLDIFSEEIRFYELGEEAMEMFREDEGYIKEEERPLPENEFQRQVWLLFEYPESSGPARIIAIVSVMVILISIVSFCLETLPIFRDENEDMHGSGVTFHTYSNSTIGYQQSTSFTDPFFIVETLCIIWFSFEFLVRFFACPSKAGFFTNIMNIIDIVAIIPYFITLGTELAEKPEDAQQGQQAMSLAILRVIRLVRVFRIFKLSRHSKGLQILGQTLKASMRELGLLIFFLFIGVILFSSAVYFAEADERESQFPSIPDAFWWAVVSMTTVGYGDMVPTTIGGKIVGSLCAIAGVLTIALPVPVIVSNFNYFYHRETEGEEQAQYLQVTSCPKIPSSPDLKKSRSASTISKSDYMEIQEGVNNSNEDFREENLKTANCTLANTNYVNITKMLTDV

Molecule: CC[N+](CC)(CC)CC [TEA^+, tetraethylammonium chloride, reference compound]
- current response to positive control (mKCa1.1): decrease in the current
- current response to positive control (hKV1.3): decrease in the current
- current response to positive control (hKV1.6): decrease in the current
- current response to positive control (hKV1.1): decrease in the current

Molecule: ChTx
- effect on KV1.2 (KV1.2): shows effects
- effect on KV1.3 (KV1.3): shows effects
- Kd (KCa3.1 channel): 5 nM
- current response to positive control (hKV1.2): decrease in the current
- affinity range [1]: picomolar to nanomolar

Molecule: Leiurotoxin I: isolated from Leiurus quinquestriatus hebraeus (AFCNLRMCQLSCRSLGLLGKCIGDKCECVKH; UniProt P16341 1-31, looked up)
- inhibition of KCa2.x subtypes (KCa2.2 channel; small-conductance Ca^2+-activated potassium channel KCa2.x subtypes): potent inhibitor

Molecule: MgTx (TIINVKCTSPKQCLPPCKAQFGQSAGAKCMNGKCKCYPH; UniProt P40755 1-39, looked up)
- affinity range [1]: picomolar to nanomolar

Molecule: apamin (CNCKAPETALCARRCQQH-NH2; disulfide 1-11, 3-15; ends not checked; UniProt P01500 28-45, looked up)
- blocking effect on KCa2 (small-conductance K^+ channel, SK) (KCa2.2 channel): picomolar range

— article PMC9866218, “Characterization and Chemical Synthesis of Cm39 (α-KTx 4.8): A Scorpion Toxin That Inhibits Voltage-Gated K^+ Channel KV1.2 and Small- and Intermediate-Conductance Ca^2+-Activated K^+ Channels KCa2.2 and KCa3.1” (Toxins, 2023)
